Results on 23 compounds are retold here after patent publication US9376420B2 (YUHAN CORPORATION, priority 2012, dated 2016).

In the assay the target is T1, human LXRβ (Homo sapiens, UniProt P55055).
T1 construct: expressed in transfected cells; host or cells: HEK293 cells (ATCC CRL-1573), transient transfection with pFA-hLXRβ/GAL4 and pUAS
T1 sequence (P55055 222-460 limits assumed): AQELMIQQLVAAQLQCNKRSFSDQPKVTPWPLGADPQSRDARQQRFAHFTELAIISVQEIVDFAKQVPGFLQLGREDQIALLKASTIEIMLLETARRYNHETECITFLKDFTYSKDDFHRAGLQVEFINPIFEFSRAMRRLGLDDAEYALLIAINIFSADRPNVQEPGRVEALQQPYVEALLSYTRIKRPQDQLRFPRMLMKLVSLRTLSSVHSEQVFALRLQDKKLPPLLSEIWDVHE
The assay can be described thus: Assay for Transcriptional Activity of LXRβ (GAL4-hLXRβ LBD luciferase reporter, transient transfection). To be noted: HEK293 cells transfected with pFA-hLXRβ/GAL4 and pUAS, 24 hours; for Emax: fold value in comparison with the control (DMSO-treated group); for EC50: increase of transcriptional activity of LXRβ, average of three independent tests. The assay is classed as cell-based. Summed up: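 EC50 values, averaged over three independent runs, come from a four-parameter fit of 9-point half-log curves spanning 0.01–50 μM. Luciferase output was read in lysed HEK293 cells 24 h after dosing at 37 °C, following transient transfection with a GAL4-human LXRβ LBD fusion plus GAL4-responsive reporter.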

Regarding `CS(=O)(=O)c1cccc(-c2ccc(C3CC(C(O)(C(F)(F)F)C(F)(F)F)=NN3c3ccccc3Cl)s2)c1` (centres unmarked) [Example 419, 1-(2-chloro-phenyl)-5-{5-[3-(methylsulfonyl)-phenyl]-thiophen-2-yl}-3-[di-(trifluoromethyl)-hydroxy-methyl]-4,5-dihydro-1H-pyrazole], the Emax is listed as 82 fold.

By EC50 is commonly meant the concentration needed to bring the measured effect to its halfway point. For `OC(C1=NN(c2ccccc2Cl)C(c2ccc(-c3ccc(C(F)(F)F)cc3)cc2)C1)(C(F)(F)F)C(F)(F)F` (centres unmarked) [Example 247, 1-(2-chloro-phenyl)-5-[4′-(trifluoromethyl)-biphenyl-4-yl]-3-[di-(trifluoromethyl)-hydroxy-methyl]-4,5-dihydro-1H-pyrazole], the Emax stood at 33 fold and the concentration for a half-maximal effect (EC50) was 2030 nM. Taken in the same sequence, the figures for `CC(C)(C)OC(=O)N1CC=C(c2cccc(N3N=C(C(O)(C(F)(F)F)C(F)(F)F)CC3c3ccccc3Cl)c2)CC1` (centres unmarked) [Example 433, 5-(2-chloro-phenyl)-1-[3-(1-BOC-1,2,3,6-tetrahydropyridin-4-yl)-phenyl]-3-[di-(trifluoromethyl)-hydroxy-methyl]-4,5-dihydro-1H-pyrazole] were 13 fold and 6600 nM.

For `Fc1cncc(-c2cccc(C3CC(C(F)(F)C(F)(F)F)=NN3c3ccc(F)cc3F)c2)c1` (centres unmarked) [Example 74, 1-(2,4-difluoro-phenyl)-5-(3-(5-fluoro-pyridin-3-yl)-phenyl)-3-pentafluoroethyl-4,5-dihydro-1H-pyrazole], the Emax stood at 29 fold and a half-maximal effect (EC50) was put at 2960 nM. With `C[S+]([O-])c1cccc(-c2ccc(C3CC(C(O)(C(F)(F)F)C(F)(F)F)=NN3c3ccccc3Cl)c(F)c2)c1` (centres unmarked) [Example 345, 1-(2-chloro-phenyl)-5-(3-fluoro-3′-methanesulfinyl-biphenyl-4-yl)-3-[di-(trifluoromethyl)-hydroxy-methyl]-4,5-dihydro-1H-pyrazole], the Emax worked out at 42 fold and the response was half-maximal at 71 nM (EC50).

`CSc1cccc(-c2ccc(C3CC(C(O)(C(F)(F)F)C(F)(F)F)=NN3c3ccccc3Cl)s2)c1` (centres unmarked) [Example 414, 1-(2-chloro-phenyl)-5-{5-[3-(methylsulfanyl)-phenyl]-thiophen-2-yl}-3-[di-(trifluoromethyl)-hydroxy-methyl]-4,5-dihydro-1H-pyrazole]: the Emax worked out at 125 fold and the midpoint of the response, the EC50, lay at 193 nM. With `OC(C1=NN(c2ccccc2Cl)C(c2ccc(-c3cc4ccccc4s3)cc2)C1)(C(F)(F)F)C(F)(F)F` (centres unmarked) [Example 263, 5-(4-benzo[b]thiophen-2-yl-phenyl)-1-(2-chloro-phenyl)-3-[di-(trifluoromethyl)-hydroxy-methyl]-4,5-dihydro-1H-pyrazole], the Emax is 72 fold and the EC50 came out at 1270 nM. Taken in the same sequence, the figures for `CS(=O)(=O)c1cccc(-c2cncc(C3CC(C(F)(F)C(F)(F)F)=NN3c3ccc(F)cc3F)c2)c1` (centres unmarked) [Example 165, 1-(2,4-difluoro-phenyl)-5-[3-(3-methanesulfonyl-phenyl)-pyridin-5-yl]-3-pentafluoroethyl-4,5-dihydro-1H-pyrazole] were 157 fold and 225 nM. `COC(=O)c1cncc(-c2ccc(C3CC(C(O)(C(F)(F)F)C(F)(F)F)=NN3c3ccccc3Cl)cc2)c1` (centres unmarked) [Example 273, 1-(2-chloro-phenyl)-5-[4-(5-methoxycarbonyl-pyridin-3-yl)-phenyl]-3-[di-(trifluoromethyl)-hydroxy-methyl]-4,5-dihydro-1H-pyrazole]: the Emax worked out at 45 fold and the EC50 was found to be 1150 nM. Taken in the same sequence, the figures for `CC(C)(O)C(=O)N1CCN(c2ccc(C3CC(C(O)(C(F)(F)F)C(F)(F)F)=NN3c3ccccc3Cl)cc2)CC1` (centres unmarked) [Example 320, 1-(2-chloro-phenyl)-5-{4-[4-(2-hydroxy-2-methyl-propionyl)-piperazin-1-yl]-phenyl}-3-(di-(trifluoromethyl)-hydroxy-methyl]-4,5-dihydro-1H-pyrazole] were 17 fold and 1660 nM. Taken in the same sequence, the figures for `OC(C1=NN(c2ccccc2Cl)C(c2ccc(-c3ccc(F)c(Cl)c3)cc2)C1)(C(F)(F)F)C(F)(F)F` (centres unmarked) [Example 256, 5-(3′-chloro-4′-fluoro-biphenyl-4-yl)-1-(2-chloro-phenyl)-3-[di-(trifluoromethyl)-hydroxy-methyl]-4,5-dihydro-1H-pyrazole] were 51 fold and 729 nM. On the same counts, the results for `CSc1cccc(-c2ccc(C3CC(C(O)(C(F)(F)F)C(F)(F)F)=NN3c3ccccc3Cl)c(F)c2)c1` (centres unmarked) [Example 338, 1-(2-chloro-phenyl)-5-(3-fluoro-3′-methylsulfanyl-biphenyl-4-yl)-3-[di-(trifluoromethyl)-hydroxy-methyl]-4,5-dihydro-1H-pyrazole] are 87 fold and 850 nM. In turn, `CC(C)(C)OC(=O)N1CC=C(c2cccc(C3CC(C(F)(F)C(F)(F)F)=NN3c3ccc(F)cc3F)c2)CC1` (centres unmarked) [Example 60, 5-[3-(1-BOC-1,2,3,6-tetrahydropyridin-4-yl)-phenyl]-1-(2,4-difluoro-phenyl)-3-pentafluoroethyl-4,5-dihydro-1H-pyrazole] gave an Emax of 11 fold and an EC50 of 20100 nM. On the same counts, the results for `CCOc1cccc(-c2ccc(C3CC(C(O)(C(F)(F)F)C(F)(F)F)=NN3c3ccccc3Cl)c(F)c2)c1` (centres unmarked) [Example 339, 1-(2-chloro-phenyl)-5-(3′-ethoxy-3-fluoro-biphenyl-4-yl)-3-[di-(trifluoromethyl)-hydroxy-methyl]-4,5-dihydro-1H-pyrazole] are 71 fold and 1110 nM. On the same counts, the results for `CS(=O)(=O)c1ccc(-c2ccnc(C3CC(C(F)(F)C(F)(F)F)=NN3c3ccc(F)cc3F)c2)cn1` (centres unmarked) [Example 178, 1-(2,4-difluoro-phenyl)-5-[4-(6-methanesulfonyl-pyridin-3-yl)-pyridin-2-yl]-3-pentafluoroethyl-4,5-dihydro-1H-pyrazole] are 82 fold and 543 nM. On the same counts, the results for `CSc1cccc(-c2ccc(F)c(C3CC(C(F)(F)C(F)(F)F)=NN3c3ccc(F)cc3F)c2)c1` (centres unmarked) [Example 138, 1-(2,4-difluoro-phenyl)-5-(4-fluoro-3′-(methylsulfanyl)biphenyl-3-yl)-3-pentafluoroethyl-4,5-dihydro-1H-pyrazole] are 153 fold and 501 nM. For `CS(=O)(=O)N1CC=C(c2ccc(C3CC(C(O)(C(F)(F)F)C(F)(F)F)=NN3c3ccccc3Cl)cc2)CC1` (centres unmarked) [Example 298, 1-(2-chloro-phenyl)-5-[4-(1-methanesulfonyl-1,2,3,6-tetrahydropyridin-4-yl)-phenyl]-3-[di-(trifluoromethyl)-hydroxy-methyl]-4,5-dihydro-1H-pyrazole], the Emax turned out to be 88 fold and it took 304 nM to reach a half-maximal effect (EC50).

In the case of `O=S(=O)(C1CC1)N1CCN(c2ccc(F)c(C3CC(C(F)(F)C(F)(F)F)=NN3c3ccc(F)cc3F)c2)CC1` (centres unmarked) [Example 146, 1-(2,4-difluoro)-5-[2-fluoro-5-(4-cyclopropanesulfonyl-piperazin-1-yl)-phenyl]-3-pentafluoroethyl-4,5-dihydro-1H-pyrazole], the Emax came out at 105 fold and the half-maximal effective concentration (EC50) stood at 842 nM.

`CNCCCS(=O)(=O)c1cccc(-c2ccc(C3CC(C(O)(C(F)(F)F)C(F)(F)F)=NN3c3ccc(F)cc3F)cc2)c1` (centres unmarked) [Example 412, 1-(2,4-difluoro-phenyl)-5-{3′-[3-(methyl-amino)-propane-1-sulfonyl]-biphenyl-4-yl}-3-[di-(trifluoromethyl)-hydroxy-methyl]-4,5-dihydro-1H-pyrazole] showed an Emax of 53 fold and an EC50 of 727 nM. On the same counts, the results for `CN(C)S(=O)(=O)N1CC=C(c2ccc(C3CC(C(O)(C(F)(F)F)C(F)(F)F)=NN3c3ccccc3Cl)cc2)CC1` (centres unmarked) [Example 305, 1-(2-chloro-phenyl)-5-{4-[1-dimethylsulfamoyl-1,2,3,6-tetrahydropyridin-4-yl]-phenyl}-3-[di-(trifluoromethyl)-hydroxy-methyl]-4,5-dihydro-1H-pyrazole] are 66 fold and 304 nM. For the compound `CS(=O)(=O)c1ccc(-c2ccc(C3CC(C(O)(C(F)(F)F)C(F)(F)F)=NN3c3ccccc3Cl)cc2)c(C(F)(F)F)c1` (centres unmarked) [Example 289, 1-(2-chloro-phenyl)-5-[4′-(methylsulfonyl)-2′-(trifluoromethyl)-biphenyl-4-yl]-3-[di-(trifluoromethyl)-hydroxy-methyl]-4,5-dihydro-1H-pyrazole], the Emax is on record as 32 fold and a half-maximal response (EC50) required 320 nM.

`CS(=O)(=O)c1ccc(-c2ccc(C3CC(C(O)(C(F)(F)F)C(F)(F)F)=NN3c3ccccc3Cl)s2)cn1` (centres unmarked) [Example 420, 1-(2-chloro-phenyl)-5-{5-[6-(methylsulfonyl)-pyridin-3-yl]-thiophen-2-yl}-3-[di-(trifluoromethyl)-hydroxy-methyl]-4,5-dihydro-1H-pyrazole]: the Emax was determined as 80 fold. In turn, `OC(C1=NN(c2ccccc2Cl)C(c2ccc(-c3ccc(F)cc3)cc2)C1)(C(F)(F)F)C(F)(F)F` (centres unmarked) [Example 246, 1-(2-chloro-phenyl)-5-(4′-fluoro-biphenyl-4-yl)-3-[di-(trifluoromethyl)-hydroxy-methyl]-4,5-dihydro-1H-pyrazole] gave an Emax of 47 fold and an EC50 of 1410 nM.
